Test results: patent US8530407B2, “Multi-component antioxidant compounds, pharmaceutical compositions containing same and their use for reducing or preventing oxidative stress” (Yissum Research Development Company of the Hebrew …, priority 2000, dated 2013)

What was measured:
[1] = system: p38; settings: DHER14 cells exposed to cisplatin (CDDP, 30 μM)
Description: (§1) In order to show the efficacy of CB against a stimulant that activates oxidative stress, an inhibition assay of both JNK (c-Jun NH2-terminal kinase) and p38 enzymes in tissue culture was performed.
(§2) NIH3T3 cells overexpressing EGF receptor (DHER14 cells) (55) were exposed to cisplatin (CDDP, 30 μM) which activates specific enzymes involved in apoptosis including JNK and p38.
(§3) Two known antioxidants were used as positive controls, NOXi (at 300 and 1000 μM) and NAC (NAC) (at 1000 μM).

[2] = system: reactive oxygen species (ROS) in DHER14 cells; experiment: Inhibition of ROS production, fluorescent dye DHDCF; type: cell-based
Description: FIG. 3 represents cellular ROS levels as determined using a fluorescence assay in the presence of CB, NOXi and NAC antioxidants.
The concentration of reactive oxygen species (ROS) in DHER14 cells following administration of antioxidants was determined using the ROS sensitive fluorescent dye DHDCF (fluoresceine derivative). […] The efficacy of CB in reducing ROS was about ˜50 fold better then these two known antioxidants.

[3] = system: JNK (c-Jun NH2-terminal kinase); settings: DHER14 cells exposed to cisplatin (CDDP, 30 μM)
Description: as §1, §2, §3

[4] = 20 μM, detected by specific antibodies

| Compound | efficacy against p38 phosphorylation compared with CB at 20 μM ([1]; 1 mM) | efficiency in reducing ROS compared with CB at 20 μM ([2]; 1000 μM) | efficacy against JNK phosphorylation compared with CB at 20 μM ([3]; 1 mM) | phosphorylated p38 [1, 4] | phosphorylated form of p38 ([1]; increasing concentrations) | ROS level ([2]; 20 μM) | efficacy in reducing ROS relative to NOXi and NAC ([2]; CB 20 μM versus 1000 μM NAC or 1000 μM NOXi) | phosphorylated JNK [3, 4] | phosphorylated form of JNK ([3]; increasing concentrations) |
| --- | --- | --- | --- | --- | --- | --- | --- | --- | --- |
| CC(=O)N[C@@H](CS)C(=O)O [NAC, N-acetyl cysteine, reference compound] | similar | as efficient as | similar |  |  |  |  |  |  |
| N-Acetyl Cysteine-Glycine-Proline-Cysteine-Amid [CB] |  |  |  | not detected at all | dramatic reduction | reduction of ROS below normal levels was prominent | ~50 fold | not detected at all | dramatic reduction |
